{
  "source": "patent US20260199274A1",
  "about": "(priority 2022, published 2026)",
  "key": {"[1]": {"tested_on": "CCL2/MCP-1, CCL5/RANTES, CXCL1/GROa, CXCL10/IP-10, IL-6 and CXCL8/IL-8", "experiment": "Protein-array of immune mediators in supernatants of IAV-infected BEAS-2B cells", "type": "cell-based, human", "conditions": "3.4 mM"}, "[2]": {"tested_on": "A/Puerto Rico/8/1934 H1N1 (PR8) virus", "type": "cell-based, influenza A virus"}, "[3]": {"tested_on": "influenza B Yamagata (B/Paris/234/2013) virus", "experiment": "Plaque-Forming Units assay, BEAS-2B cells infected with IBV", "type": "cell-based", "conditions": "3.4 mM for 16 h from 4 h post-infection"}, "[4]": {"tested_on": "Delta strain of SARS-CoV-2", "type": "cell-based"}, "[5]": {"tested_on": "Wuhan strain of SARS-CoV-2", "experiment": "IL-6 ELISA in Vero epithelial cells infected with SARS-CoV-2 Wuhan strain", "type": "cell-based", "conditions": "MOI=1, 1 mg/ml cis-aconitate for 16 hours from 4 h post-infection"}, "IL-6 production [6]": {"tested_on": "IL-6 production", "experiment": "hIL-6 ELISA in supernatants of IAV-infected BEAS-2B cells", "type": "cell-based, human"}, "[7]": {"tested_on": "NF-kB activity / TNFα secretion", "experiment": "Murine model of acute lung injury induced by lipopolysaccharide", "type": "in vivo, mice", "conditions": "10 μg LPS", "experimental": "NF-kB transgenic Balb/c (FIG. 11a, 11b) or C57Bl/6 (FIG. 11c) mice were instilled with 10 μg of lipopolysaccharides (LPS) and treated 15 minutes post-stimulation with 0.6 mg of cis-aconitate (CA) intranasally. 24 h post-instillation, mice were anesthetized. In the group of NF-kB transgenic Balb/c animals, luciferine was intranasally instilled (0.75 mg·kg^−1) and bioluminescence was measured using the IVIS imaging system (FIG. 11a, 11b). In the group of C57Bl/6 mice, BALs fluids were collected to determine TNFα levels (FIG. 11c).). Bioluminescence was then measured using the IVIS system. […] Statistical analysis was performed using the Mann-Whitney test.\nThen, we further examined the anti-inflammatory effect of cis-aconitate administered intranasally in a valuable murine model of acute lung injury induced by lipopolysaccharide ([63]), a cell wall component characteristic of Gram-negative bacteria."}, "[8]": {"tested_on": "ERK, AKT and NF-κB signaling pathways", "experiment": "Western blotting of phosphorylated ERK1/2, AKT and p65 in BEAS-2B cells", "type": "cell-based, human"}, "IAV-triggered cell death": {"tested_on": "IAV-triggered cell death", "type": "cell-based, human"}, "[9]": {"conditions": "0.6 mg intranasally every second day for 15 days"}, "IL-6 production [10]": {"tested_on": "IL-6 production", "experiment": "hIL-6 in IAV-infected human precision-cut lung slices (PCLS)", "type": "cell-based", "conditions": "3.4 mM CA 2 hpi, 48 hpi"}, "IL-6 production [11]": {"tested_on": "IL-6 production", "experiment": "IL-6 ELISA in BEAS-2B cells stimulated with inflammatory agonists (PIC, PMA, TNFα)", "type": "cell-based, human", "conditions": "increasing doses of CA 16 h"}, "viral polymerase": {"target": "viral polymerase (Influenza A virus, UniProt P03427+P03430+P15659)", "type": "cell-based"}, "BEAS-2B cells": {"tested_on": "BEAS-2B cells", "experiment": "BEAS-2B tolerance: Ki67, mitotracker, DHR 123 and Live Dead staining", "type": "cell-based, human", "experimental": "(FIG. 8a) Human bronchial epithelial BEAS-2B cells were treated with PBS or with 3.4 mM of cis-aconitate (CA), itaconate (Ita), oxaloacetate (Oxa), isocitrate (IsoC), citrate (Cit), fumarate (Fum), pyruvate (Pyr) or glucose (Glc) for 16 h and cytotoxicity was assessed by MTS assay. BEAS-2B cells were treated (CA+) or not (CA-) with 3.4 mM of CA for 6 or 24 h (FIG. 8b, 8c, 8d) or with 0, 1.2, 2.3 or 3.4 mM of CA for 20 h (FIG. 8e). Cell proliferation (FIG. 8b), mitochondrial labeling (FIG. 8c), ROS production (FIG. 8d) and cell viability (FIG. 8e) were analyzed by Ki67, mitotracker, DHR 123 and Live Dead staining respectively. (FIG. 8f) Human primary bronchial epithelial cells (PBEC) were treated with 0.6, 3.4 or 5.7 mM CA for 16 h and cytotoxicity was assessed by a MTS test. Data are represented as mean±/−SEM of 4 (FIG. 8b-f) or 5 (FIG. 8a) independent experiments. Statistical analysis was performed using the Kruskal-Wallis test with Dunn's multiple comparison test (FIGS. 8a, 8e and 8f) or Friedman test with Dunn's multiple comparison test (FIG. 8b-8d).\nCell proliferation and cytotoxicity assays. Cells in 96-well plates were washed twice with PBS and incubated for 1 h at 37° C. with 100 μL of MTS reagent diluted 1/5 for the cell proliferation test. Optical density was measured at 490 nm. For the cytotoxicity assay, cells were stained for 15 min at 4° C. with Live/Dead or with anti-Ki67, mitotracker and […] flow cytometry analysis."}, "[12]": {"tested_on": "influenza A/pandemic/2009 H1N1 (H1N1p) strain", "type": "cell-based, influenza A virus"}, "IL-6 production [13]": {"tested_on": "IL-6 production", "experiment": "IL-6 ELISA in PBEC (IAV, poly(I:C) or PMA)", "type": "cell-based, human"}},
  "data": [
    {"smiles": "O=C(O)/C=C(/CC(=O)O)C(=O)O", "note": "[cis-aconitate]", "values": [
      {"measurement": "IAV-induced expression of CCL2/MCP-1, CCL5/RANTES, CXCL1/GROa, CXCL10/IP-10, IL-6 and CXCL8/IL-8", "setting": "[1]", "value": "inhibited"},
      {"measurement": "viral particles production (PFU)", "setting": "[2]", "value": "at least one log decrease"},
      {"measurement": "viral particles production (PFU)", "setting": "[3]", "value": "at least one log decrease"},
      {"measurement": "IL-6 production", "setting": "[4]", "value": "significant reduction"},
      {"measurement": "IL-6 production", "setting": "[5]", "value": "significant reduction"},
      {"measurement": "IL-6 production, dose-dependent", "setting": "IL-6 production [6]; BEAS-2B stimulated with IAV MOI=1, increasing doses of CA 16 h", "value": "significant decrease"},
      {"measurement": "IL-6 production of IAV-infected epithelial cells", "setting": "IL-6 production [6]; BEAS-2B, IAV MOI=1, 3.4 mM for 16 h", "value": "reduced"},
      {"measurement": "TNFα secretion in the BAL fluids", "setting": "[7]; C57Bl/6 mice, 0.6 mg CA intranasally, 24 h", "value": "significantly decreased"},
      {"measurement": "LPS-induced inflammation (NF-kB bioluminescence)", "setting": "[7]; NF-kB transgenic Balb/c mice, 0.6 mg CA intranasally 15 minutes post-stimulation, 24 hours", "value": "markedly reduced"},
      {"measurement": "ERK, AKT and NF-κB signaling pathways", "setting": "[8]", "value": "reductions"},
      {"measurement": "accumulation of phosphorylated ERK1/2, Akt and p65", "setting": "[8]", "value": "inhibited"},
      {"measurement": "reduction in SYTOX labeling (dead cells)", "setting": "IAV-triggered cell death", "value": "approximately 70%"},
      {"measurement": "adverse effects", "setting": "[9]", "value": "no adverse effects"},
      {"measurement": "overall fecal microbial composition (Aitchison distance)", "setting": "[9]; day 0, 7, 14", "value": "no differences"},
      {"measurement": "reduction in IL-6 production", "setting": "IL-6 production [10]", "value": "twofold"},
      {"measurement": "IL-6 production, dose-dependent", "setting": "IL-6 production [11]; BEAS-2B stimulated with 20 ng/ml TNFα", "value": "trend"},
      {"measurement": "IL-6 production, dose-dependent", "setting": "IL-6 production [11]; BEAS-2B stimulated with 50 nM PMA", "value": "significant decrease"},
      {"measurement": "IL-6 production, dose-dependent", "setting": "IL-6 production [11]; BEAS-2B stimulated with 2 μg/mL Poly (I:C)", "value": "significant decrease"},
      {"measurement": "luciferase activity versus concentration", "setting": "viral polymerase", "value": "dose-dependent decrease"},
      {"measurement": "reduction of luciferase activity (viral polymerase activity)", "setting": "viral polymerase", "value": "~ 75%"},
      {"measurement": "cell viability (Live Dead)", "setting": "BEAS-2B cells; BEAS-2B, 0, 1.2, 2.3 or 3.4 mM, 20 h", "value": "did not impact"},
      {"measurement": "ROS production (DHR 123)", "setting": "BEAS-2B cells; BEAS-2B, 3.4 mM, 6 or 24 h", "value": "did not impact"},
      {"measurement": "cell proliferation (Ki67)", "setting": "BEAS-2B cells; BEAS-2B, 3.4 mM, 6 or 24 h", "value": "did not impact"},
      {"measurement": "mitochondria accumulation (mitotracker)", "setting": "BEAS-2B cells; BEAS-2B, 3.4 mM, 6 or 24 h", "value": "did not impact"},
      {"measurement": "viral particles production (PFU)", "setting": "[12]", "value": "at least one log decrease"},
      {"measurement": "reduction of IAV-induced hIL-6 production", "setting": "IL-6 production [13]", "value": "up to 80%"},
      {"measurement": "pro-inflammatory cytokine (IL-6) expression induced by PMA", "setting": "IL-6 production [13]; PBEC, PMA 4 h, then CA 20 h", "value": "dose-dependent decrease"},
      {"measurement": "pro-inflammatory cytokine (IL-6) expression induced by PIC", "setting": "IL-6 production [13]; PBEC, poly(I:C) 4 h, then CA 20 h", "value": "dose-dependent decrease"}
    ]}
  ]
}
